Patent US4139632A, “Psychotropic 2-trifluoromethyl-10-[3-(3-hydroxy-pyrrolidino)-propyl]-phenothiazine compounds” (Eisai Co., Ltd., priority 1975, dated 1979)

Experiments:
Type in all cases: in vivo
Mouse [1] = assay: Inhibitory effect of spontaneous motor activity; conditions: read-out: Inhibitory effect of spontaneous motor activity, 50% effective amount (ED50)
Experimental: (§1) Measurement of pharmacological activities are conducted in accordance with the procedures described in the following literatures:
1) Svensson, T. H. et al

Mouse [2] = assay: Anti-tremorine activity (anti-Parkinson activity); conditions: for ED50: read-out: Anti-tremorine activity, 50% effective amount (ED50)
Experimental: (§2) Measurement of pharmacological activities are conducted in accordance with the procedures described in the following literatures: […]

Mouse [3] = assay: Anti-methanphethamine activity (neuroleptic activity); conditions: read-out: Anti-methanphethamine, 50% effective amount (ED50)
Experimental: as §2

Mouse [4] = assay: Anti-writhing effect (analgetic activity); conditions: read-out: Anti-writhing effect, 50% effective amount (ED50)
Experimental: as §1
Proc. Soc. […] Biol, & Med.,

Mouse [5] = assay: Acute toxicity LD50, oral administration; conditions: compared with chlorpromazine and fluphenazine

Which ED50 (Mouse [1]; Mus musculus, po) does the source give for `CN(C)CCCN1c2ccccc2Sc2ccc(Cl)cc21` [Chlorpromazine] here?
The ED50 was 13 mg/kg.

And the ED50 (Mouse [2]; Mus musculus, po)?
Its ED50 is 2.3 mg/kg.

And the ED50 (Mouse [3]; Mus musculus, po)?
Its ED50 is 5.6 mg/kg.

And the ED50 (Mouse [4]; Mus musculus, po)?
Its ED50 is 9.4 mg/kg.

What does the source list for `Cl.OC1CCN(CCCN2c3ccccc3Sc3ccc(C(F)(F)F)cc32)C1` (stereo not drawn) [Compound A, 2-trifluoromethyl-10-[3-(3-hydroxy-pyrrolidino)-propyl]-phenothiazine hydrochloride]?
ED50 (Mouse [1]; mouse, oral administration): 3.3 mg/kg; central anticholinergic activity (Mouse [2]; concluded from table comparison): has central anticholinergic activity; ED50 (Mouse [2]; mouse, oral administration): 3.6 mg/kg; ED50 (Mouse [3]; mouse, oral administration): 0.9 mg/kg; acute toxicity (LD50) relative to chlorpromazine and fluphenazine (Mouse [5]): far less than that of chlorpromazine and fluphenazine; ED50 (Mouse [4]; mouse, oral administration): 1 mg/kg

For `OCCN1CCN(CCCN2c3ccccc3Sc3ccc(C(F)(F)F)cc32)CC1` [Fluphenazine], which ED50 (Mouse [1]; mouse, oral administration) is on record?
The ED50 was 2.1 mg/kg.

And the ED50 (Mouse [2]; mouse, oral administration)?
The ED50 was 12 mg/kg.

What about the ED50 (Mouse [3]; mouse, oral administration) of the same compound?
The ED50 was 0.5 mg/kg.

What about the ED50 (Mouse [4]; mouse, oral administration) of the same compound?
The ED50 was 2.5 to 10 mg/kg.

What does the source list for `Cl.FC(F)(F)c1ccc2c(c1)N(CCCN1CCCC1)c1ccccc1S2` [Known Compound a, 2-trifluoromethyl-10-(3-pyrrolidino-propyl)-phenothiazine hydrochloride]?
ED50 (Mouse [1]; mouse, oral administration): 3.8 mg/kg; ED50 (Mouse [2]; mouse, oral administration): 4.3 mg/kg; ED50 (Mouse [3]; mouse, oral administration): 1.9 mg/kg; ED50 (Mouse [4]; mouse, oral administration): 4.1 mg/kg
